Test results: US20160037772A1, “INCREASING ABIOTIC STRESS TOLERANCE IN PLANTS” (priority 2014, published 2016)

How the values were obtained:
apple trees = assay: Field trial in apple trees under heat, light and water stress (sunburn, fruit size, yield); format: in vivo; conditions: apples
Procedure: Field trials were conducted in commercial fields and orchards in Chile during the 2011-12 and 2012-13 growing seasons. The results were evaluated by measuring specific fruit parameters affected by abiotic stress including fruit diameter, fruit number, and amount of damage from heat or sunburn. The plants evaluated were apples and tomatoes. The plants in the trials received a conventional application of pesticides, under normal application conditions. The heat and light stress were considered important from the beginning of fruit development. High temperatures ranged between 30-35° C. ambient temperature measured by conventional methods in the shade from December to harvest.
Foliage and fruit were evaluated before and after treatments at regular intervals for signs of phytotoxicity. […] Furthermore, no signs of uncontrolled disease incidence was detected.
SUNCROPS, SUNCROPS PLUS, SCREEN DUO, and ECLIPSE are commercial treatments which are used in the management of abiotic stress. Kaolins and calcium carbonates reduce stress by reflecting the ultraviolet, visible and infrared rays, reducing the impact of excessive heat and light in photosynthesis and other essential plant cellular processes. The dicarboxylic acids, such as the azalaic acid in SUNCROPS PLUS, physiologically act by interacting on lipo-oxygenation processes and production of reactive oxygen species. (Greenberg et al. “The lipid whisker model of the structure of oxidized cell membranes.” J. Biol. Chem. 283, 2385-96, 2008)
The apple trees received six applications of each formulation at the dosages indicated in the “Dosage” column of Table 1. Tomato plants received biweekly treatments from fruit formation to fruit harvest (a total of 6 applications).
The different stages of fruit development correspond to (1) cell division (2) pit hardening (stone fruits only) (3) cell expansion and (4) fruit ripening. The start of the tests was done during the cell division phase. This phase corresponds to the period with increased susceptibility to damage from high temperatures, and can be correlated with increase in fruits having reduced size and decrease in the number of fruits per plant as a consequence of the abiotic stress due to high temperatures.
Early season heat, light and/or water stress can prevent cell division that occurs during phase (1) of the development of apple fruits.
Testing with apples was conducted in Rancagua, Sixth Region; Chile. The tree fruit load was standardized at a value of about 220 fruits per tree; ±3%, thus eliminating the variability generated by different loads of fruit on the trees. To assess damage from sunburn related to heat and water stress, 100% of the apples were harvested from the tree in each test unit and were classified according to the following scheme shown in Table 2.
Table 2. Classification scheme based on visual evaluation of the fruit • 0 No visible presence of sunburn • 1 Presence of slight yellowing of the skin (<7% of the surface of the fruit); exportable commercial fruit. • 2 Presence of strong yellowing of the skin (>7% of the surface of the fruit); exportable commercial fruit. • 3 Presence of moderate sunburn skin, no commercial fruit, suitable only for juice or related industry. • 4 Presence of significant sunburn skin, no harvestable fruit unmarketable.
The variables measured were: fruit diameter (mm), percentage of sunburn (number of fruits belonging to grades 1 or 2), size of the fruit (measured as weight in grams). The total fruit yield of the tree and the commercial yield (amount of commercial grade fruits, grades 1 or 2) was also measured.

tomato plants = assay: Field trial in tomato plants under heat, light and water stress (sunburn, yield, soluble solids); format: in vivo; conditions: 6 applications
Procedure: The study was conducted on tomatoes in a commercial growing field in Botalcura, Talca, Chile. […]
For each two meters plot, plants were harvested during six test runs. The fruit were first evaluated visually: fruits with red color as adequate for industrial processing, fruits with green color as inadequate and inappropriate for industrial processing and fruits damaged by the sun as disposable. […]

O=CCCCCCCCC(=O)O [ONA, 9-Oxononanoic acid]
Fruit diameter (apple trees; Rancagua, Chile, six applications at Table 1 dosage, about 220 fruits per tree): 40.63 mm
Effectiveness in protection of fruit compared with commercial treatments (apple trees; cell division stage): more effective than commercial treatments
Yield commercial (apple trees; commercial grade fruits (grades 1 or 2), six applications): 49.7 kg/tree
Size (apple trees; fruit weight, six applications): 146 g/apple
Yield total (apple trees; six applications): 53.9 kg/tree
Percent fruit of grades 1 or 2 (apple trees; visual sunburn grading scheme of Table 2, six applications): 88.25%
Soluble solids (tomato plants): 6.4 °Brix
